Results taken from PMC11995216, “End-to-End Backbone Cyclization Enhances Passive Permeability of bRo5 Oligomeric Depsipeptides with Nonlinear Size Dependence” (ACS Medicinal Chemistry Letters, 2025).
Values joined by “and” are separate entries in the source; they are usually repeats but may differ in a detail not shown here. Equal values may be shown once. Read-outs that look alike come from different tables or passages of the source.

Legend:
PAMPA [1] = test system: PAMPA
PAMPA [2] = test system: PAMPA; remark: listed apart in the source
PAMPA [3] = test system: PAMPA; remark: listed apart in the source
PAMPA [4] = conditions: calculated using Supplement Equation 1, UV detection
PAMPA [5] = test system: PAMPA; remark: listed apart in the source
PAMPA [6] = conditions: UV detection
[7] = PAMPA, permeability assay across an artificial membrane; conditions: for Acceptor Concentration, Ave: after incubation
[8] = Papp (x 10^-6 cm/s) – ELSD Detection / [row 2], ELSD Detection
[9] = Papp (x 10^-6 cm/s) – ELSD Detection / [row 3], ELSD Detection
[10] = Papp (x 10^-6 cm/s) – ELSD Detection / [row 4], ELSD Detection
[11] = Papp (x 10^-6 cm/s) – ELSD Detection / [row 5], ELSD Detection
[12] = Papp (x 10^-6 cm/s) – ELSD Detection / [row 6], ELSD Detection
[13] = Papp (x 10^-6 cm/s) – ELSD Detection / [row 7], ELSD Detection
[14] = Papp (x 10^-6 cm/s) – ELSD Detection / [row 8], ELSD Detection
[15] = Papp (x 10^-6 cm/s) – ELSD Detection / [row 9], ELSD Detection
[16] = Papp (x 10^-6 cm/s) – ELSD Detection / [row 10], ELSD Detection
[17] = Papp (x 10^-6 cm/s) – UV Detection / [row 1], UV Detection
[18] = Papp (x 10^-6 cm/s) – UV Detection / [row 2], UV Detection
[19] = Papp (x 10^-6 cm/s) – UV Detection / [row 3], UV Detection
[20] = Papp (x 10^-6 cm/s) – UV Detection / [row 4], UV Detection
[21] = Papp (x 10^-6 cm/s) – UV Detection / [row 6], UV Detection
[22] = Papp (x 10^-6 cm/s) – UV Detection / [row 7], UV Detection
[23] = Papp (x 10^-6 cm/s) – UV Detection / [row 8], UV Detection
[24] = Papp (x 10^-6 cm/s) – UV Detection / [row 9], UV Detection
[25] = Papp (x 10^-6 cm/s) – UV Detection / [row 10], UV Detection
[26] = Acceptor Concentration (uM) – ELSD Detection / [row 1]
[27] = Acceptor Concentration (uM) – ELSD Detection / [row 2]
[28] = Acceptor Concentration (uM) – ELSD Detection / [row 3]
[29] = Acceptor Concentration (uM) – ELSD Detection / [row 4]
[30] = Acceptor Concentration (uM) – ELSD Detection / [row 5]
[31] = Acceptor Concentration (uM) – ELSD Detection / [row 6]
[32] = Acceptor Concentration (uM) – ELSD Detection / [row 7]
[33] = Acceptor Concentration (uM) – ELSD Detection / [row 8]
[34] = Acceptor Concentration (uM) – ELSD Detection / [row 9]
[35] = Acceptor Concentration (uM) – ELSD Detection / [row 10]
[36] = Acceptor Concentration (uM) – UV Detection / [row 1]
[37] = Acceptor Concentration (uM) – UV Detection / [row 2]
[38] = Acceptor Concentration (uM) – UV Detection / [row 4]
[39] = Acceptor Concentration (uM) – UV Detection / [row 5]
[40] = Acceptor Concentration (uM) – UV Detection / [row 6]
[41] = Acceptor Concentration (uM) – UV Detection / [row 7]
[42] = Acceptor Concentration (uM) – UV Detection / [row 8]
[43] = Acceptor Concentration (uM) – UV Detection / [row 9]
[44] = Acceptor Concentration (uM) – UV Detection / [row 10]

CCCCC[C@@H]1OC(=O)[C@@H](C)N(C)C(=O)[C@H](CCCCC)OC(=O)[C@@H](C)N(C)C(=O)[C@H](CCCCC)OC(=O)[C@@H](C)N(C)C(=O)[C@H](CCCCC)OC(=O)[C@@H](C)N(C)C(=O)[C@H](CCCCC)OC(=O)[C@@H](C)N(C)C1=O [Compound C1.5]
Papp (PAMPA [1]; [8]): 2.93 ×10⁻⁶ cm/s | Papp (PAMPA [1]; [9]): 2.62 ×10⁻⁶ cm/s | Papp (PAMPA [1]; [10]): 2.78 ×10⁻⁶ cm/s | Papp (PAMPA [1]; [11]): 3.09 ×10⁻⁶ cm/s | Papp (PAMPA [1]; [12]): 2.8 ×10⁻⁶ cm/s | Papp (PAMPA [1]; [13]): 3.15 ×10⁻⁶ cm/s | Papp (PAMPA [1]; [14]): 2.83 ×10⁻⁶ cm/s | Papp (PAMPA [1]; [15]): 2.67 ×10⁻⁶ cm/s | Papp (PAMPA [1]; [16]): 3.08 ×10⁻⁶ cm/s | Papp (PAMPA [1]; [17]): 3.3 ×10⁻⁶ cm/s | Papp (PAMPA [1]; [18]): 3.13 ×10⁻⁶ cm/s | Papp (PAMPA [1]; [19]): 3.08 ×10⁻⁶ cm/s | Papp (PAMPA [1]; [20]): 2.85 ×10⁻⁶ cm/s | Papp (PAMPA [1]; Papp (x 10^-6 cm/s) – UV Detection / [row 5], UV Detection): 3.14 ×10⁻⁶ cm/s | Papp (PAMPA [1]; [21]): 3.54 ×10⁻⁶ cm/s | Papp (PAMPA [1]; [22]): 3.19 ×10⁻⁶ cm/s | Papp (PAMPA [1]; [23]): 3.6 ×10⁻⁶ cm/s | Papp (PAMPA [1]; [24]): 3.64 ×10⁻⁶ cm/s | Papp (PAMPA [1]; [25]): 3.64 ×10⁻⁶ cm/s | acceptor concentration after incubation (PAMPA [2]; Well 5 / [acc]): 61.8 µM | donor concentration after incubation (PAMPA [3]; Well 1 / [donor]): 379 µM and 372 µM | donor concentration after incubation (PAMPA [3]; Well 2 / [donor]): 370 µM and 384 µM | donor concentration after incubation (PAMPA [3]; Well 3 / [donor]): 400 µM and 367 µM | donor concentration after incubation (PAMPA [3]; Well 4 / [donor]): 389 µM and 372 µM | donor concentration after incubation (PAMPA [3]; Well 5 / [donor]): 376 µM and 362 µM | %T (PAMPA [4]; Well 1 / %T, Well 1): 0.44% and 0.46% | %T (PAMPA [4]; Well 2 / %T, Well 2): 0.42% and 0.43% | %T (PAMPA [4]; Well 3 / %T, Well 3): 0.42% and 0.47% | %T (PAMPA [4]; Well 4 / %T, Well 4): 0.39% and 0.47% | %T (PAMPA [4]; Well 5 / %T, Well 5): 0.42% and 0.47% | Acceptor Concentration (PAMPA [5]; [26]): 67.5 µM | Acceptor Concentration (PAMPA [5]; [27]): 63.9 µM | Acceptor Concentration (PAMPA [5]; [28]): 64.8 µM | Acceptor Concentration (PAMPA [5]; [29]): 62.3 µM | Acceptor Concentration (PAMPA [5]; [30]): 65.1 µM | Acceptor Concentration (PAMPA [5]; [31]): 65 µM | Acceptor Concentration (PAMPA [5]; [32]): 68.5 µM | Acceptor Concentration (PAMPA [5]; [33]): 67.7 µM | Acceptor Concentration (PAMPA [5]; [34]): 61.3 µM | Acceptor Concentration (PAMPA [5]; [35]): 66.1 µM | Acceptor Concentration (PAMPA [5]; [36]): 66.6 µM | Acceptor Concentration (PAMPA [5]; [37]): 60.4 µM | Acceptor Concentration (PAMPA [5]; [38]): 56.7 µM | Acceptor Concentration (PAMPA [5]; [39]): 61.9 µM | Acceptor Concentration (PAMPA [5]; [40]): 71.3 µM | Acceptor Concentration (PAMPA [5]; [41]): 64.8 µM | Acceptor Concentration (PAMPA [5]; [42]): 71.7 µM | Acceptor Concentration (PAMPA [5]; [43]): 73.6 µM | Acceptor Concentration (PAMPA [5]; [44]): 71.6 µM | % recovery (PAMPA [6]; Well 2 / %R, Well 2): 86% and 90% | % recovery (PAMPA [6]; Well 3 / %R, Well 3): 93% and 88% | % recovery (PAMPA [6]; Well 5 / %R, Well 5): 88% and 87%

CCCCC[C@@H]1OC(=O)[C@@H](C)N(C)C(=O)[C@H](CCCCC)OC(=O)[C@@H](C)N(C)C(=O)[C@H](CCCCC)OC(=O)[C@@H](C)N(C)C(=O)[C@H](CCCCC)OC(=O)[C@@H](C)N(C)C(=O)[C@H](CCCCC)OC(=O)[C@@H](C)N(C)C(=O)[C@H](CCCCC)OC(=O)[C@@H](C)N(C)C1=O [Compound C1.6]
Papp (PAMPA [1]; [8]): 1.94 ×10⁻⁶ cm/s | Papp (PAMPA [1]; [9]): 1.99 ×10⁻⁶ cm/s | Papp (PAMPA [1]; [10]): 1.87 ×10⁻⁶ cm/s | Papp (PAMPA [1]; [11]): 1.89 ×10⁻⁶ cm/s | Papp (PAMPA [1]; [12]): 1.93 ×10⁻⁶ cm/s | Papp (PAMPA [1]; [13]): 1.88 ×10⁻⁶ cm/s | Papp (PAMPA [1]; [14]): 1.91 ×10⁻⁶ cm/s | Papp (PAMPA [1]; [15]): 1.8 ×10⁻⁶ cm/s | Papp (PAMPA [1]; [16]): 1.92 ×10⁻⁶ cm/s | Papp (PAMPA [1]; [17]): 1.95 ×10⁻⁶ cm/s | Papp (PAMPA [1]; [18]): 1.93 ×10⁻⁶ cm/s | Papp (PAMPA [1]; [19]): 1.95 ×10⁻⁶ cm/s | Papp (PAMPA [1]; [20]): 1.81 ×10⁻⁶ cm/s | Papp (PAMPA [1]; [21]): 2.59 ×10⁻⁶ cm/s | Papp (PAMPA [1]; [22]): 1.89 ×10⁻⁶ cm/s | Papp (PAMPA [1]; [23]): 1.91 ×10⁻⁶ cm/s | Papp (PAMPA [1]; [24]): 2.19 ×10⁻⁶ cm/s | Papp (PAMPA [1]; [25]): 1.87 ×10⁻⁶ cm/s | acceptor concentration after incubation (PAMPA [2]; Well 1 / [acc]): 38.6 µM and 51.1 µM | acceptor concentration after incubation (PAMPA [2]; Well 2 / [acc]): 37.6 µM and 41.4 µM | acceptor concentration after incubation (PAMPA [2]; Well 3 / [acc]): 41.9 µM | acceptor concentration after incubation (PAMPA [2]; Well 4 / [acc]): 31.6 µM and 49.1 µM | acceptor concentration after incubation (PAMPA [2]; Well 5 / [acc]): 37.4 µM | Diffusion (%) ([7]; PAMPA percent diffusion, C0 500 uM): 6.78% and 7% and 6.8 ± 1.7% | Recovery (%) ([7]; PAMPA, (acceptor + donor)/total analyte, C0 500 uM): 90% | Papp at 500 uM ([7]; PAMPA, Ave, ELSD detection, C0 500 uM): 1.9 ×10⁻⁶ cm/s | Papp at 500 uM ([7]; PAMPA, ratio-based method, mean ± SD, C0 500 uM, UV detection): 2 ± 0.23 ×10⁻⁶ cm/s | recovery at 500 uM ([7]; PAMPA, Recovery (%), PAMPA, (acceptor + donor)/total analyte, C0 500 uM): 89.7% | Acceptor Concentration, Ave ([7]; PAMPA, ELSD detection, C0 500 uM): 33.9 µM | Acceptor Concentration, Ave ([7]; PAMPA, UV detection, C0 500 uM): 39.95 µM | Δ % diffusion ([7]; increase: difference between percent diffusion of macrocycle vs linear counterpart): ↑2% | donor concentration after incubation (PAMPA [3]; Well 1 / [donor]): 407 µM and 377 µM | donor concentration after incubation (PAMPA [3]; Well 2 / [donor]): 404 µM and 445 µM | donor concentration after incubation (PAMPA [3]; Well 3 / [donor]): 368 µM and 446 µM | donor concentration after incubation (PAMPA [3]; Well 4 / [donor]): 379 µM and 438 µM | donor concentration after incubation (PAMPA [3]; Well 5 / [donor]): 406 µM and 417 µM | %T (PAMPA [4]; Well 1 / %T, Well 1): 0.63% and 0.58% | %T (PAMPA [4]; Well 2 / %T, Well 2): 0.65% and 0.63% | %T (PAMPA [4]; Well 3 / %T, Well 3): 0.63% and 0.59% | %T (PAMPA [4]; Well 4 / %T, Well 4): 0.66% and 0.6% | %T (PAMPA [4]; Well 5 / %T, Well 5): 0.62% and 0.63% | Acceptor Concentration (PAMPA [5]; [26]): 27.2 µM | Acceptor Concentration (PAMPA [5]; [27]): 30 µM | Acceptor Concentration (PAMPA [5]; [28]): 25.6 µM | Acceptor Concentration (PAMPA [5]; [29]): 29.3 µM | Acceptor Concentration (PAMPA [5]; [30]): 27.1 µM | Acceptor Concentration (PAMPA [5]; [31]): 45.6 µM | Acceptor Concentration (PAMPA [5]; [32]): 39.3 µM | Acceptor Concentration (PAMPA [5]; [33]): 42.2 µM | Acceptor Concentration (PAMPA [5]; [34]): 25.8 µM | Acceptor Concentration (PAMPA [5]; [35]): 46.7 µM | Acceptor Concentration (PAMPA [5]; [36]): 38.6 µM | Acceptor Concentration (PAMPA [5]; [37]): 37.6 µM | Acceptor Concentration (PAMPA [5]; Acceptor Concentration (uM) – UV Detection / [row 3]): 33.9 µM | Acceptor Concentration (PAMPA [5]; [38]): 31.6 µM | Acceptor Concentration (PAMPA [5]; [39]): 37 µM | Acceptor Concentration (PAMPA [5]; [40]): 51.1 µM | Acceptor Concentration (PAMPA [5]; [41]): 41.4 µM | Acceptor Concentration (PAMPA [5]; [42]): 41.9 µM | Acceptor Concentration (PAMPA [5]; [43]): 49 µM | Acceptor Concentration (PAMPA [5]; [44]): 37.4 µM | % recovery (PAMPA [6]; Well 1 / %R, Well 1): 89% and 86% | % recovery (PAMPA [6]; Well 2 / %R, Well 2): 88% and 97% | % recovery (PAMPA [6]; Well 3 / %R, Well 3): 80% and 98% | % recovery (PAMPA [6]; Well 4 / %R, Well 4): 82% and 97% | % recovery (PAMPA [6]; Well 5 / %R, Well 5): 89% and 91%
